{"source": "paper PMC8968748", "about": "(Journal of medicinal chemistry, 2021)", "key": {"[1]": {"test_system": "IDH1(R132H)-86b", "test": "SplitLuc CETSA target engagement in HEK293T cells", "format": "cell-based", "details": "relative to 119"}, "[2]": {"test": "Mouse pharmacokinetic study", "format": "in vivo"}, "[3]": {"test_system": "U87 mIDH1 (R132H) xenograft", "test": "PK/PD in U87 R132H mIDH1 xenograft mouse model", "format": "in vivo", "details": "single 30 mg/kg p.o."}, "[4]": {"test_system": "U87-mIDH1 (R132H) cells", "test": "Cellular 2-HG production assay", "format": "cell-based, human"}, "[5]": {"test": "PK/PD in U87 R132H mIDH1 xenograft mouse model", "format": "in vivo", "details": "female, athymic nude (nu/nu NCr), mouse, in vivo, po, 30 mg/kg"}, "[6]": {"molecular_target": "WT IDH1 (Homo sapiens, UniProt O75874)", "sequence (O75874 whole entry)": "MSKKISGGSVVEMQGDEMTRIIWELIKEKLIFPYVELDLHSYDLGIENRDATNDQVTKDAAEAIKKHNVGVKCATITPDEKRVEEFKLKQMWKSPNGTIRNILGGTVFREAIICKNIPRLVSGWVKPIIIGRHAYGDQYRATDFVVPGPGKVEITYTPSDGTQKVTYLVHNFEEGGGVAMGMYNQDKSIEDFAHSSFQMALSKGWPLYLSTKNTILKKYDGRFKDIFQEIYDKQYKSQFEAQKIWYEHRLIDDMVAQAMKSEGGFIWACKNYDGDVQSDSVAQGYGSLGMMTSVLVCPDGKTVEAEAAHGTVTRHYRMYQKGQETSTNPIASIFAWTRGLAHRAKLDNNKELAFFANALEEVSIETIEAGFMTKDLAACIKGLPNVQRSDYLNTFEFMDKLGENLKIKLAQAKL", "test": "IDH1-WT selectivity assay", "format": "biochemical"}, "[7]": {"test": "Kinetic solubility assay", "format": "physicochemical", "details": "phosphate buffer, pH 7.4"}, "[8]": {"molecular_target": "IDH1 R132H (Homo sapiens, UniProt O75874, R132H)", "sequence (O75874 whole entry R132H)": "as the sequence (O75874 whole entry) above, with R132H counted along it", "test": "diaphorase/resazurin-coupled mIDH1 R132H enzyme assay", "format": "biochemical", "details": "mIDH1 R132H, relative to 70"}, "[9]": {"test": "Single time point rat liver microsome stability assay", "format": "in vitro ADME", "details": "rat liver microsomes, pH 7.4"}, "[10]": {"test": "Parallel artificial membrane permeability assay", "format": "in vitro ADME", "details": "PAMPA, pH 7.4, PAMPA (10^−6 cm/s)"}}, "note": "pIC50: −log10 of the molar value."}
{"smiles": "CCc1ccc(Cl)cc1-n1c(C=C(C)C)c(C(=O)N2CCNCC2)cc(-c2nc(-c3ccc(Cl)cc3)cs2)c1=O", "note": "(single isomer, unassigned) [(+)-119]", "values": [{"measurement": "fold more potent than 119 in HEK293 engagement assay", "setting": "[1]", "result": 13, "unit": "fold"}, {"measurement": "brain AUC", "setting": "[2]; CD1 mice, single 30 mg/kg oral dose", "result": 6996, "unit": "ng·h/g"}, {"measurement": "Kp", "setting": "[2]; male, CD1, mouse, brain/plasma, po, 30 mg/kg", "result": 0.28}, {"measurement": "Cmax", "setting": "[2]; male, CD1, mouse, plasma, po, 30 mg/kg", "result": "~3340", "unit": "nM"}, {"measurement": "average concentration in tumor at 48 h", "setting": "[3]; 48 h, 30 mg/kg", "result": 7, "unit": "µM"}, {"measurement": "reduction in tumor 2-HG compared to AG-120", "setting": "[3]; from the 16 h time point onwards", "result": "greater reduction in tumor 2-HG"}, {"measurement": "2-HG levels lowered by (%)", "setting": "[4]; 100 nM, U87-mIDH1 (R132H) cells, 48 h", "result": "more than 94%"}, {"measurement": "pIC50", "setting": "[4]; Homo sapiens, read-out: potency at reducing 2-HG in the cellular assay", "result": "> 9.15"}, {"measurement": "fold more potent than 119 in U87 2-HG assay", "setting": "[4]; relative to 119", "result": 30, "unit": "fold"}]}
{"smiles": "N#Cc1ccnc(N2C(=O)CC[C@H]2C(=O)N(c2cncc(F)c2)[C@H](C(=O)NC2CC(F)(F)C2)c2ccccc2Cl)c1", "note": "[AG-120]", "values": [{"measurement": "concentration at 24 h", "setting": "[5]", "result": 1600, "unit": "nM"}, {"measurement": "concentration at 36 h", "setting": "[5]", "result": 1400, "unit": "nM"}, {"measurement": "concentration at 48 h", "setting": "[5]", "result": 770, "unit": "nM"}]}
{"smiles": "COc1ccc(OC)c(-n2c3c(cc(-c4nc(-c5ccc(Cl)cc5)cs4)c2=O)C(=O)CC(C)(C)C3)c1", "note": "[Compound 1, 3-(4-(4-Chlorophenyl)thiazol-2-yl)-1-(2,5-dimethoxyphenyl)-7,7-dimethyl-7,8-dihydroquinoline-2,5(1H,6H)-dione]", "values": [{"measurement": "off-target activity against WT IDH1", "setting": "[6]", "result": "no readout interference and off-target activity against WT IDH1"}]}
{"smiles": "CCc1cccc(CC)c1-n1c(C)c(C(=O)NC)cc(-c2nc(-c3ccc(Cl)cc3)cs2)c1=O", "note": "[Compound 70, 5-(4-(4-Chlorophenyl)thiazol-2-yl)-1-(2,6-diethylphenyl)-N,2-dimethyl-6-oxo-1,6-dihydropyridine-3-carboxamide]", "values": [{"measurement": "solubility kinetic at 6 h", "setting": "[7]", "result": "< 1", "unit": "µM"}]}
{"smiles": "CCc1cccc(CC)c1-n1c(C)c(C(=O)N2CCNCC2)cc(-c2nc(-c3ccc(Cl)cc3)cs2)c1=O", "note": "[Compound 87, 3-(4-(4-Chlorophenyl)thiazol-2-yl)-1-(2,6-diethylphenyl)-6-methyl-5-(piperazine-1-carbonyl)pyridin-2(1H)-one]", "values": [{"measurement": "fold improvement in potency compared to analog 70", "setting": "[8]", "result": 7, "unit": "fold"}, {"measurement": "solubility kinetic at 6 h", "setting": "[7]", "result": 6.7, "unit": "µM"}]}
{"smiles": "CCc1cccc(CC)c1-n1c(C=C(C)C)c(C(=O)N2CCNC(C)C2)cc(-c2nc(-c3ccc(Cl)cc3)cs2)c1=O", "note": "(stereo not shown) [Compound 99, 3-(4-(4-Chlorophenyl)thiazol-2-yl)-1-(2,6-diethylphenyl)-5-(3-methylpiperazine-1-carbonyl)-6-(2-methylprop-1-en-1-yl)pyridin-2(1H)-one]", "values": [{"measurement": "half-life at 1 μM", "setting": "[9]", "result": 25, "unit": "min"}, {"measurement": "solubility at 6 h", "setting": "[7]", "result": "< 1", "unit": "µg/mL"}, {"measurement": "Papp at 30 min, 0.05 mM", "setting": "[10]", "result": 213, "unit": "×10⁻⁶ cm/s"}]}
